“And” between values parts separate entries of the source, which are not always exact repeats. Equal values may be shown once.
Assays:
[1] = test system: capsaicin-treated hindpaw; experiment: Analgesic Bioassay Protocol: rat hindpaw withdrawal latency to radiant heat after capsaicin sensitisation; type: in vivo, Sprague-Dawley rats; conditions: n=5
Procedure: A rat hindpaw assay was used to determine the therapeutic effectiveness of various extracts/compounds as analgesics in the present invention. Sprague-Dawley rats (225-250 g, male) were anesthetized with urethane and placed on their sides on a disposable Chux pad. Both hindpaws for each rat were blackened with India ink which was allowed to dry for 10 minutes. An ELH projector lamp calibrated to a standard mW/cm was used as a pain stimulus and was condensed into an area of 5×15 mm on each hindpaw and placed perpendicular to, and 72 mm from, each hindpaw. Multiple baseline hindpaw withdrawal latency times were recorded (in seconds) for each medial and each lateral surface of each hindpaw. Subsequently, 100 μl of 1 μmolar capsaicin was applied with a pipette to cover one hindpaw of each animal and allowed to dry for 10 minutes, rendering the capsaicin-treated hindpaw hypersensitive to pain stimulus relative to the non-capsaicin treated hindpaw (and thereby decreasing the withdrawal latency period for the capsaicin-treated hindpaw relative to the non-treated hindpaw). Both hindpaws were then re-blackened with India ink which was allowed to dry for 10 minutes, and hindpaw withdrawal latencies were recorded for both the capsaicin-treated and untreated hindpaws on both the medial and lateral aspects of both hindpaws at 20, 25 and 30 minutes. […] By contrast, only minor drops in the withdrawal latency periods of the untreated hindpaws was seen, and the effect that was observed is believed to be due to the central mechanism effect of capsaicin-treatment on the other hindpaw. To determine the analgesic properties of each fraction, 100 μl of each fraction were applied to the capsaicin-treated hindpaw by pipette and permitted to dry (the untreated hindpaw was not treated with the fraction). Hindpaw withdrawal latencies were then recorded at 5, 20 and 30 minutes for both the capsaicin/fraction-treated hindpaw and the untreated hindpaw. An increase in the hindpaw withdrawal time was indicative of an analgesic effect by the applied fraction.

mouse air pouch = experiment: Inflammation Bioassay Protocol: mouse air pouch assay, carrageenan-induced, white blood cell count in exudate; type: in vivo, mice
Procedure: A mouse air pouch assay was used to determine the therapeutic effectiveness of various extracts/compounds as anti-inflammatories in the present invention.
To induce air pouches, 10-15 week old mice were injected subcutaneously on the back with 3 ml of air.
On day 2, the pouches were reinflated with 1.5 m. of air.
On day 6, inflammation was induced by injecting 1 ml of a suspension of carrageenan (2% weight/volume in calcium-free and magnesium-free phosphate buffered saline (PBS) solution) into the air pouch.
100 μL of solution including test compounds were injected with the carrageenan (additional 100 μL of PBS were injected into the controls).
After 4 hours, the mice were sacrificed by including C02 narcosis, the pouches were flushed with 2 ml of PBS, and exudates were harvested.
Exudates were diluted 1:1 with 0.015% methylene blue in PBS.
White blood cells were counted in a standard hemocytometer chamber (American Optical, Buffalo, N.Y.).

[2] = white blood cells in air pouch exudate, individual mice, 4 hours after carrageenan

Structure (SMILES): O=c1cc(-c2ccc(O)c(O)c2)oc2cc(OC3OC(COC4OCC(O)(CO)C4O)C(O)C(O)C3O)cc(O)c12 [Compound 580, luteolin 7-(6″-β-D-apiofuranosyl)-β-D-glucopyranoside]
- Avg All Cap ([1]; average of all post-capsaicin latencies, before test substance): 6.3 s
- Avg Ext 5 ([1]; latency 5 minutes after application to capsaicin-treated hindpaw, amount (mg)): 13.7 s
- Avg Ext 20 ([1]; latency 20 minutes after application to capsaicin-treated hindpaw, amount (mg)): 9.6 s
- Avg Cap 20 ([1]; latency 20 minutes after capsaicin, before test substance): 5.8 s
- Avg Cap 25 ([1]; latency 25 minutes after capsaicin, before test substance): 7.2 s
- Avg Ext 30 ([1]; latency 30 minutes after application to capsaicin-treated hindpaw, amount (mg)): 9.4 s
- Avg Cap 30 ([1]; latency 30 minutes after capsaicin, before test substance): 6 s
- Avg Baseline ([1]; withdrawal latency before capsaicin and before test substance): 9.3 s
- Average Cells (10^6/ml) (mouse air pouch; mean of five treated mice, control mice 2.67): 1.00 10^6/ml
- anti-inflammatory effects, comparison with reference drugs (mouse air pouch; result in words): comparable to 0.5-1.0 mg/kg/week of chronic methotrexate, or 1.5 mg/kg acute dose of dexamethasone
- Cells (10^6/ml) (mouse air pouch; [2]): 0.75 10^6/ml and 1.17 10^6/ml and 0.72 10^6/ml and 1.16 10^6/ml and 1.22 10^6/ml
- Cells/ml (mouse air pouch; [2]): 7.50E+05 Cells/ml and 1.17E+06 Cells/ml and 7.20E+05 Cells/ml and 1.16E+06 Cells/ml and 1.22E+06 Cells/ml
- Average Count (mouse air pouch; white blood cells, average of 4 hemocytometer chambers, individual mice, 100 μL test solution with carrageenan, exudate after 4 hours): 37.50 and 58.50 and 24.00 and 38.75 and 40.50
